US6423711B1 (dated 2002)
Counter-ions that a name gives are not always drawn.

| Structure (SMILES) | melting point |
| --- | --- |
| Cl.O=C(NCCO)C1CCN(c2cc(-c3ccccc3)nc3ccsc23)CC1 | > 220 °C (dec.) |
| Cl.O=C(NC1CC1)C1CCN(c2cc(-c3ccccc3)nc3ccsc23)CC1 | 199 to 201 °C (dec.) |
| O=C(NCc1ccncc1)C1CCN(c2cc(-c3ccccc3)nc3ccsc23)CC1 (as salt: hydrochloride) | 176 to 178 °C (dec.) |
| NC(=O)C1CCN(c2cc(-c3ccc(F)cc3)nc3ccsc23)CC1 | 251 to 253 °C |
| CCCCNC(=O)C1CCN(c2cc(-c3ccccc3)nc3ccsc23)CC1.Cl | 170 to 172 °C (dec.) |
| COC(=O)C1CCN(c2cc(-c3ccccc3)nc3sccc23)CC1.Cl | > 220 °C (dec.) |
| CCNC(=O)C1CCN(c2cc(-c3ccccc3)nc3cccnc23)CC1.Cl | > 210 °C (dec.) |
| CN(C)CCNC(=O)C1CCN(c2cc(-c3ccccc3)nc3ccsc23)CC1.Cl | > 150 °C (dec.) |
| O=C(NC1CCCC1)C1CCN(c2cc(-c3ccccc3)nc3ccsc23)CC1 (as salt: hydrochloride) | 179 to 181 °C (dec.) |
| Cc1ccc(CNC(=O)C2CCN(c3cc(-c4ccccc4)nc4ccsc34)CC2)cc1.Cl | 177 to 178 °C (dec.) |
| CC(C)(C)NC(=O)C1CCN(c2cc(-c3ccccc3)nc3ccsc23)CC1.Cl | 270 to 272 °C (dec.) |
| Cl.NC(=O)C1CCN(c2cc(-c3ccccc3)nc3ccsc23)CC1 | 303 to 305 °C (dec.) |
| NC(=O)C1CCN(c2cc(-c3ccc(F)cc3)nc3ccsc23)CC1 (as salt: hydrochloride) | > 303 °C (dec.) |
| CCNC(=O)C1CCN(c2cc(-c3ccc(F)cc3)nc3ccsc23)CC1.Cl | 220 to 222 °C (dec.) |
| Cl.O=C(NCCCCl)N1CCN(c2cc(-c3ccc(F)cc3)nc3ccsc23)CC1 | 235 to 238 °C (dec.) |
| NC(=O)C1CCN(c2cc(-c3ccccc3F)nc3ccsc23)CC1 | 194 to 195 °C |
| O=C(NCC1CCCO1)C1CCN(c2cc(-c3ccccc3)nc3ccsc23)CC1 (centres unmarked) (as salt: hydrochloride) | > 210 °C (dec.) |
| CCOc1ccc(-c2cc(N3CCC(C(N)=O)CC3)c3sccc3n2)cc1.Cl | 211 to 213 °C (dec.) |
| CCNC(=O)N1CCN(c2cc(-c3ccccc3)nc3ccsc23)CC1.Cl | > 240 °C (dec.) |
| COc1cccc(-c2cc(N3CCC(C(N)=O)CC3)c3sccc3n2)c1.Cl | 133 to 135 °C (dec.) |
| Cl.NCCNC(=O)C1CCN(c2cc(-c3ccccc3)nc3ccsc23)CC1 | 176 to 178 °C (dec.) |
| CNC(=O)C1CCN(c2cc(-c3ccccc3)nc3ccsc23)CC1.Cl | > 260 °C (dec.) |

| Structure (SMILES) | melting point |
| --- | --- |
| CCCNC(=O)C1CCN(c2cc(-c3ccccc3)nc3ccsc23)CC1.Cl | 159 to 160 °C (dec.) |
| COc1cccc(-c2cc(N3CCN(C(=O)c4ccncc4)CC3)c3sccc3n2)c1 (as salt: hydrochloride) | 215 to 217 °C |
| CCNC(=O)N1CCN(c2cc(-c3ccc(F)cc3)nc3ccsc23)CC1.Cl | > 147 °C (dec.) |
| CCNC(=O)N1CCN(c2cc(-c3cccc(OC)c3)nc3ccsc23)CC1.Cl | > 198 °C |
| COCCNC(=O)C1CCN(c2cc(-c3ccccc3)nc3ccsc23)CC1 (as salt: hydrochloride) | 157 to 160 °C (dec.) |
| CCNCCNC(=O)C1CCN(c2cc(-c3ccccc3)nc3ccsc23)CC1.Cl | > 95 °C (dec.) |
| Cl.O=C(NCCO)C1CCN(c2cc(-c3ccc(F)cc3)nc3ccsc23)CC1 | 198 to 200 °C (dec.) |
| CCNC(=O)C1CCN(c2cc(-c3ccncc3)nc3ccsc23)CC1.Cl | > 227 °C (dec.) |
| CN(C)CCNC(=O)C1CCN(c2cc(-c3ccc(F)cc3)nc3ccsc23)CC1.Cl | 180 to 182 °C (dec.) |
| CNC(=O)N1CCN(c2cc(-c3ccccc3)nc3ccsc23)CC1.Cl | 185 to 190 °C |
| Cl.O=C(NCc1ccccc1)C1CCN(c2cc(-c3ccccc3)nc3ccsc23)CC1 | 163 to 165 °C (dec.) |
| CCOc1ccc(-c2cc(N3CCC(C(=O)NCc4ccccn4)CC3)c3sccc3n2)cc1.Cl | 178 to 180 °C (dec.) |
| Cl.O=C(NCc1ccc(F)cc1)C1CCN(c2cc(-c3ccccc3)nc3ccsc23)CC1 | 190 to 192 °C (dec.) |
| CCNC(=O)C1CCN(c2cc(-c3cccc(OC)c3)nc3ccsc23)CC1.Cl | > 230 °C (dec.) |
| COCCCNC(=O)C1CCN(c2cc(-c3ccccc3)nc3ccsc23)CC1.Cl | 147 to 149 °C (dec.) |
| CCCNC(=O)C1CCN(c2cc(-c3ccc(F)cc3)nc3ccsc23)CC1.Cl | 207 to 209 °C (dec.) |
| Cl.O=C(NCc1cccc(F)c1)C1CCN(c2cc(-c3ccccc3)nc3ccsc23)CC1 | 236 to 238 °C (dec.) |
| Cl.O=C(NCc1cccs1)C1CCN(c2cc(-c3ccccc3)nc3ccsc23)CC1 | > 230 °C (dec.) |
| COc1cccc(-c2cc(N3CCN(C(=O)c4ccc(F)cc4)CC3)c3sccc3n2)c1 (as salt: hydrochloride) | > 174 °C (dec.) |
| c1ccc(-c2cc(N3CCOCC3)c3sccc3n2)cc1 (as salt: hydrochloride) | 195 to 198 °C |
| COC(C)CNC(=O)C1CCN(c2cc(-c3ccc(F)cc3)nc3ccsc23)CC1 (centres unmarked) (as salt: hydrochloride) | 179 to 180 °C (dec.) |
| Cl.NCCNC(=O)C1CCN(c2cc(-c3ccc(F)cc3)nc3ccsc23)CC1 | 115 to 118 °C (dec.) |
